# Data taken from US20150366839A1, “Schisantherin A for the treatment of neurodegenerative diseases” (priority 2014, published 2015).
# Read-outs that look alike come from different tables or passages of the source.
# Tests used:
# [1] = system: TH-positive neurons in the SNpc; assay type: in vivo, C57BL/6 mice; conditions: for neuroprotective effect on TH-positive neurons: then MPTP
# Experimental: Male C57BL/6 mice (20±2 g body weight, 6-8 weeks of age) were purchased from the Laboratory Animal Center of Guangdong Province and were fed six animals per cage, under a 12 h light/dark cycle with ad libitum access to food and water. Mice were handled daily and allowed 3 days to acclimate before each treatment. Six groups of mice (n=7/group, total 42 mice) were assigned for the neuroprotective study in vivo. SchiA at different concentrations (30, 100 or 300 mg/kg/day), positive control drug (Selegiline, 10 mg/kg/day) or vehicle (Tween-80/ml propylene glycol/alcohol/5% PVA, 1:1:1:17, v/v/v/v) were administered by intragastric gavage (i.g.) daily for 14 days. Then mice were injected by intraperitoneal (i.p.) with 30 mg/kg MPTP hydrochloride (Sigma-Aldrich) or physiological saline daily on days 15-19 (total 5 days). In order to allow for the full conversion of MPTP to its active metabolite MPP^+, a further 3 days of resting period followed (Levites, Weinreb et al. 2001). All animal experiments were conducted according to the ethical guidelines for animal experiment of Jinan University. The experimental protocols were approved by the Ethics Committee for Animal Experiments of Jinan University (permit number 20110810).
# Three days after MPTP treatment, animals were anesthetized by i.p. administration of […] chloral hydrate (10% (w/v) dissolved in distilled water) and perfused intracardially with 100 mL PBS (0.1 mmol/L, pH 7.4) followed by 150 mL 4% paraformaldehyde (PFA) in PBS. After intracardial perfusion, brains were collected and post-fixed in 4% PFA for another 24 h at 4° C., embedded in paraffin, and cut into 6 μm coronal sections encompassing the entire SNpc. As the decrease of TH-positive neurons in response to MPTP treatment is the most prominent at medial levels of the SNpc (Hayley, Crocker et al. 2004), the inventors selected the sections from the area encompassed between −3.08 and −3.20 from bregma to perform immunohistochemisty. Immunohistochemistry of brain tissues was performed as previously described (He, Yamauchi et al. 2008; Yokoyama, Takagi et al. 2008) with minor modifications. Sections were deparaffinized in xylene and rehydrated in a graded ethanol series. […] Non-specific protein binding was blocked with 10% bovine serum in PBS (0.01 M, pH 7.4). Between each treatment, the slides were washed at least three times with deionized water for 5 minutes. […] The results were analyzed by counting the numbers of TH-positive cells at ×10 magnifications on a stereomicroscope (BX51, Olympus Corp. Japan). TH-positive cells in 6 position-matched sections of each mouse were counted manually by operator who was blinded to the drug treatment. […]
# caspase-3 = assay: MPP+-induced caspase-3 activation, Western blot; assay type: cell-based, Human; conditions: 60 μM 12 h, then 2 mM MPP+ 36 h
# Experimental: (§1) After treatment, SH-SY5Y cells were washed three times with PBS and then lysis with RIPA lysis buffer containing 1% PMSF and 1% Protease Inhibitor Cocktail and incubated for 30 min on ice. Cell lysates were centrifuged at 12,500 g for 20 min at 4° C. The supernatant was separated and the amount of protein was determined using the BCA protein assay kit (Thermo Scientific Pierce, USA). Protein samples (30 μg) were separated by SDS-PAGE (10% (w/v)) polyacrylamide gel and then transferred to a polyvinylidene difluoride (PVDF) membrane (Bio-Rad, Hercules, Calif.). Subsequently, the membrane was blocked with 5% (v/v) non-fat milk in PBST (PBS containing 0.1% Tween 20) for 1 h at room temperature. The blots were incubated overnight at 4° C. with primary antibodies. After three washes with PBST, the membranes were incubated with horseradish peroxidase-conjugated secondary antibodies (1:2000) in PBST with 5% non-fat milk for 1 h at room temperature. […] Quantitative assessment of protein bands was done with Gel Doc™ XRS equipped with Quantity One software.
# The inventors performed Western blot to measure the expression of active-form of caspase-3 and caspase-7 in SH-SY5Y cells. […] Caspase-3 activity was expressed as units per mg protein. ###p<0.005 versus control group; *p<0.05, **p<0.01 and *** p<0.005 versus MPP+ group.
# Akt = assay: p-Akt level after MPP+, Western blot; assay type: cell-based, Human
# Experimental: as §1, with “antibodies.” for “antibodies. After three washes with PBST, the membranes were incubated with horseradish peroxidase-conjugated secondary antibodies (1:2000) in PBST with 5% non-fat milk for 1 h at room temperature.”
# The inventors also investigated the contribution of the PI3K/Akt pathway in the neuroprotective effects of SchiA. The inventors measured phosphorylation-Akt (p-Akt) levels after pre-treated with 60 μM SchiA for 12 h and then exposed to 2 mM MPP for another 36 h. […] To further validate whether the activation of PI3K/Akt signaling pathway, the inventors determined the blocking effect of PI3K/Akt inhibitor such as AKT inhibitor IV on the in vitro neuroprotective effect of SchiA. […]
# P-gp = P-gp (Homo sapiens, UniProt P08183); conditions: Pan, Lu et al. 2006; cited from earlier work
# P-gp, sequence (P08183 whole entry): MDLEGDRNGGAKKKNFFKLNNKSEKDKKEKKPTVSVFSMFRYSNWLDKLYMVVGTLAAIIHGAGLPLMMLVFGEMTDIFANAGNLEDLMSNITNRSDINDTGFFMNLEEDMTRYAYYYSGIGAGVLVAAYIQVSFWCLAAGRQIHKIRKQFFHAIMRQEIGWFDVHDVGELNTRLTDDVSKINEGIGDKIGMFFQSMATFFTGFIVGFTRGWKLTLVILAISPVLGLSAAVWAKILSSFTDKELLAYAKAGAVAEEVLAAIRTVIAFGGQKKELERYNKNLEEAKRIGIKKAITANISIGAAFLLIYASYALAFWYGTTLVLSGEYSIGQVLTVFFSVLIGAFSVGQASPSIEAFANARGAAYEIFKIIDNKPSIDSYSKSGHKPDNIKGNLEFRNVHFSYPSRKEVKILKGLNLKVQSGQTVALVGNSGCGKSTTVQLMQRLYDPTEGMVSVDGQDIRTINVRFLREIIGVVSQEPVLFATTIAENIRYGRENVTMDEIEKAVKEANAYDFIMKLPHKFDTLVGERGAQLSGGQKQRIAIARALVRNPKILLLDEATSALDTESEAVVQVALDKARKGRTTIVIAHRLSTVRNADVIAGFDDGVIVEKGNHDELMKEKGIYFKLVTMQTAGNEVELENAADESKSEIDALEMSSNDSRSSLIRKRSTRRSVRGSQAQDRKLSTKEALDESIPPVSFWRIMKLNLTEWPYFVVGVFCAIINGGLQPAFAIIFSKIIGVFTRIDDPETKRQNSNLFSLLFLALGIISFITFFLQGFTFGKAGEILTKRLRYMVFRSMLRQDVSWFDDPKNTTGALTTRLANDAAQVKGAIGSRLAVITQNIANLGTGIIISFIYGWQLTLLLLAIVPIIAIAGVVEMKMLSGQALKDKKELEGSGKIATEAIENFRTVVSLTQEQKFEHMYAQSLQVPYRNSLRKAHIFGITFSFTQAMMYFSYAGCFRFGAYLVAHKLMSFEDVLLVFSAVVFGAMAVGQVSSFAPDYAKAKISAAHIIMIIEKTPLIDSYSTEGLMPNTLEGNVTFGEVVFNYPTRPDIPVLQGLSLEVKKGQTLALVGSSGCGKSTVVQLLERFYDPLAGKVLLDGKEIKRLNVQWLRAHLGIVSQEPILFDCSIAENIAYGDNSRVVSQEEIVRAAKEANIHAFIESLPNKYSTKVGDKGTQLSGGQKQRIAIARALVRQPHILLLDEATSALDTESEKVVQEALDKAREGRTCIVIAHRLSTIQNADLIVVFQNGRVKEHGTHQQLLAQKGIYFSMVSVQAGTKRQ
smiles,measurement,setting,value
"COc1cc2c(c(OC)c1OC)-c1c(cc3c(c1OC)OCO3)C[C@H](C)[C@](C)(O)[C@H]2OC(=O)c1ccccc1 [SchiA, Schisantherin A]",neuroprotective effect on TH-positive neurons,[1]; 30 mg/kg,did not exert statistical significant neuroprotective effect
same,neuroprotective effect on TH-positive neurons,[1]; 100 mg/kg,did not exert statistical significant neuroprotective effect
same,TH-positive neurons in SNpc,"[1]; 300 mg/kg/day i.g. 14 days, then MPTP 30 mg/kg i.p. 5 days",82±12 cells/section
same,MPP+-induced caspase-3 activation (active form),caspase-3,significant decrease
same,MPP+-induced down-regulation of Akt expressions,"Akt; 60 μM 12 h, then 2 mM MPP+ 36 h",inhibited
same,"p-Akt level compared to control group, compound alone","Akt; 60 μM, without MPP+",2.5 fold
same,P-gp inhibition,P-gp,potent P-gp inhibitor
